Literature values in US5358942A, “Inhibition of protein kinase C with Cyclic phosphonate compounds” (Louisiana State University, priority 1993, dated 1994).

Test system: carnitine palmitoyltransferase (CPT)

inhibition of carnitine palmitoyltransferase (CPT): potently inhibits
SMILES: CCCCCCCCCCCCCCC[C@@]1(O)C[N+](C)(C)C[C@H](CC(=O)O)O1.[Br-] [Hemipalmitoyl carnitinium (HPC), Hemipalmitoyl carnitinium]
